From ChEMBL document CHEMBL1201862, “PubChem BioAssay data set” (2004)
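How tested: cells in 96-well plates exposed to compound for 48 hours at five concentrations. GI50: concentration for 50% inhibition of growth.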 Calls of active or inactive are those of the source. No stated cut-off is given here; in the data, active = GI50 up to about 1.1 µM and inactive = higher.

Legend:
Assay in all cases: NCI-60 cell line screen, 48 h
HCC 2998 = tested on: HCC 2998
A498 = tested on: A498
OVCAR-3 = tested on: OVCAR-3
HOP-92 = tested on: HOP-92
ACHN = tested on: ACHN
DU-145 = tested on: DU-145
SK-MEL-28 = tested on: SK-MEL-28
Malme-3M = tested on: Malme-3M
M14 = tested on: M14
COLO 205 = tested on: COLO 205
MCF7 = tested on: MCF7
NCI/ADR-RES = tested on: NCI/ADR-RES
786-0 = tested on: 786-0
IGROV-1 = tested on: IGROV-1
SN12C = tested on: SN12C
OVCAR-4 = tested on: OVCAR-4
TK-10 = tested on: TK-10
LOX IMVI = tested on: LOX IMVI
SW-620 = tested on: SW-620
NCI-H522 = tested on: NCI-H522
A549 = tested on: A549
HCT-116 = tested on: HCT-116
BT-549 = tested on: BT-549
NCI-H460 = tested on: NCI-H460
MDA-MB-435 = tested on: MDA-MB-435
SF-539 = tested on: SF-539
UACC-62 = tested on: UACC-62
RXF 393 = tested on: RXF 393
RPMI-8226 = tested on: RPMI-8226
SK-OV-3 = tested on: SK-OV-3
KM12 = tested on: KM12
SNB-75 = tested on: SNB-75
MOLT-4 = tested on: MOLT-4
SR = tested on: SR
EKVX = tested on: EKVX
UACC-257 = tested on: UACC-257
UO-31 = tested on: UO-31
OVCAR-5 = tested on: OVCAR-5
SF-268 = tested on: SF-268
OVCAR-8 = tested on: OVCAR-8
CAKI-1 = tested on: CAKI-1
MDA-N = tested on: MDA-N
HOP-62 = tested on: HOP-62
HT-29 = tested on: HT-29
NCI-H23 = tested on: NCI-H23
HL-60 = tested on: HL-60
SK-MEL-5 = tested on: SK-MEL-5
SF-295 = tested on: SF-295
SNB-19 = tested on: SNB-19
HCT-15 = tested on: HCT-15
U-251 = tested on: U-251
Hs-578T = tested on: Hs-578T
K562 = tested on: K562
CCRF-CEM = tested on: CCRF-CEM
NCI-H226 = tested on: NCI-H226
MDA-MB-231 = tested on: MDA-MB-231
T47D = tested on: T47D
PC-3 = tested on: PC-3

CCOC(=O)/C(=C\NC#N)c1nc2ccccc2[nH]1
GI50 (HCC 2998): > 100 µM (inactive)
GI50 (A498): > 100 µM (inactive)
GI50 (OVCAR-3): > 100 µM (inactive)
GI50 (HOP-92): > 100 µM (inactive)
GI50 (ACHN): 30.2 µM (inactive)
GI50 (DU-145): > 100 µM (inactive)
GI50 (SK-MEL-28): > 100 µM (inactive)
GI50 (Malme-3M): > 100 µM (inactive)
GI50 (M14): > 100 µM (inactive)
GI50 (COLO 205): > 100 µM (inactive)
GI50 (MCF7): > 100 µM (inactive)
GI50 (NCI/ADR-RES): > 100 µM (inactive)
GI50 (786-0): > 100 µM (inactive)
GI50 (IGROV-1): 58.9 µM (inactive)
GI50 (SN12C): > 100 µM (inactive)
GI50 (OVCAR-4): > 100 µM (inactive)
GI50 (TK-10): 85.5 µM (inactive)
GI50 (LOX IMVI): > 100 µM (inactive)
GI50 (SW-620): > 100 µM (inactive)
GI50 (NCI-H522): 68.5 µM (inactive)
GI50 (A549): > 100 µM (inactive)
GI50 (HCT-116): > 100 µM (inactive)
GI50 (BT-549): > 100 µM (inactive)
GI50 (NCI-H460): 60.5 µM (inactive)
GI50 (MDA-MB-435): > 100 µM (inactive)
GI50 (SF-539): > 100 µM (inactive)
GI50 (UACC-62): 85.1 µM (inactive)
GI50 (RXF 393): > 100 µM (inactive)
GI50 (RPMI-8226): 78.5 µM (inactive)
GI50 (SK-OV-3): > 100 µM (inactive)
GI50 (KM12): > 100 µM (inactive)
GI50 (SNB-75): > 100 µM (inactive)
GI50 (MOLT-4): 5.75 µM (inactive)
GI50 (SR): 52.7 µM (inactive)
GI50 (EKVX): > 100 µM (inactive)
GI50 (UACC-257): > 100 µM (inactive)
GI50 (UO-31): 1.28 µM (inactive)
GI50 (OVCAR-5): > 100 µM (inactive)
GI50 (SF-268): 72.9 µM (inactive)
GI50 (OVCAR-8): > 100 µM (inactive)
GI50 (CAKI-1): > 100 µM (inactive)
GI50 (MDA-N): > 100 µM (inactive)
GI50 (HOP-62): > 100 µM (inactive)
GI50 (HT-29): > 100 µM (inactive)
GI50 (NCI-H23): > 100 µM (inactive)
GI50 (HL-60): 45.5 µM (inactive)
GI50 (SK-MEL-5): 65.2 µM (inactive)
GI50 (SF-295): > 100 µM (inactive)
GI50 (SNB-19): > 100 µM (inactive)
GI50 (HCT-15): 91 µM

COc1ccc(NC(=O)CSc2nc(C)nc3c2sc(=S)n3-c2ccccc2)cc1
GI50 (HCC 2998): > 10 µM (inactive)
GI50 (A498): 5 µM (inactive)
GI50 (OVCAR-3): 6.15 µM (inactive)
GI50 (HOP-92): 2.11 µM (inactive)
GI50 (ACHN): 4.68 µM (inactive)
GI50 (U-251): > 10 µM (inactive)
GI50 (Hs-578T): 3.75 µM (inactive)
GI50 (DU-145): > 10 µM (inactive)
GI50 (SK-MEL-28): > 10 µM (inactive)
GI50 (Malme-3M): > 10 µM (inactive)
GI50 (M14): 8.07 µM (inactive)
GI50 (COLO 205): 7.28 µM (inactive)
GI50 (MCF7): 8.11 µM (inactive)
GI50 (NCI/ADR-RES): 8.51 µM (inactive)
GI50 (786-0): 3.39 µM (inactive)
GI50 (IGROV-1): > 10 µM (inactive)
GI50 (SN12C): > 10 µM (inactive)
GI50 (OVCAR-4): 3.18 µM (inactive)
GI50 (TK-10): > 10 µM (inactive)
GI50 (LOX IMVI): > 10 µM (inactive)
GI50 (SW-620): > 10 µM (inactive)
GI50 (NCI-H522): > 10 µM (inactive)
GI50 (A549): > 10 µM (inactive)
GI50 (HCT-116): 8.28 µM (inactive)
GI50 (NCI-H460): 3.73 µM (inactive)
GI50 (MDA-MB-435): 7.91 µM (inactive)
GI50 (SF-539): 2.43 µM (inactive)
GI50 (UACC-62): > 10 µM (inactive)
GI50 (RXF 393): > 10 µM (inactive)
GI50 (RPMI-8226): > 10 µM (inactive)
GI50 (SK-OV-3): > 10 µM (inactive)
GI50 (KM12): > 10 µM (inactive)
GI50 (K562): > 10 µM (inactive)
GI50 (CCRF-CEM): > 10 µM (inactive)
GI50 (SNB-75): 2.97 µM (inactive)
GI50 (MOLT-4): > 10 µM (inactive)
GI50 (SR): > 10 µM (inactive)
GI50 (EKVX): 7.67 µM (inactive)
GI50 (UACC-257): > 10 µM (inactive)
GI50 (OVCAR-5): > 10 µM (inactive)
GI50 (SF-268): > 10 µM (inactive)
GI50 (OVCAR-8): > 10 µM (inactive)
GI50 (CAKI-1): 7.46 µM (inactive)
GI50 (MDA-N): > 10 µM (inactive)
GI50 (NCI-H226): 6.85 µM (inactive)
GI50 (HOP-62): 5.27 µM (inactive)
GI50 (HT-29): > 10 µM (inactive)
GI50 (MDA-MB-231): > 10 µM (inactive)
GI50 (T47D): > 10 µM (inactive)
GI50 (NCI-H23): > 10 µM (inactive)
GI50 (HL-60): > 10 µM (inactive)
GI50 (PC-3): > 10 µM (inactive)
GI50 (SK-MEL-5): > 10 µM (inactive)
GI50 (SF-295): 7.26 µM (inactive)
GI50 (SNB-19): > 10 µM (inactive)
GI50 (HCT-15): > 10 µM
